Measured values taken from patent US9334286B2, “Pharmacologically active compounds” (Cancer Research Technology Limited, priority 2012, dated 2016).

molecular target: full length MPS1 (Homo sapiens (Human), UniProt P33981); assay: Measurement of inhibition of MPS1 kinase (Caliper EZ reader, fluorescent labelled peptide H236); assay type: biochemical; conditions: full length MPS1 12.5 nM or 3 nM, peptide H236 5 μM, ATP 10 μM, 60 min at room temperature
Experimental: The reaction was carried out for 60 min at room temperature and stopped by the addition of buffer (10 μl) containing 20 mM EDTA, 0.05% (v/v) Brij-35, in 0.1M HEPES-buffered saline (Free acid, Sigma, UK). The plate was read on a Caliper EZ reader II (Caliper Life Sciences).
The reader provides a Software package (‘Reviewer’) which converts the peak heights into % conversion by measuring both product and substrate peak and also allows selection of control well which represent 0% and 100% inhibition respectively. The % inhibition of the compounds is calculated relative to the means of selected control wells. IC50s are determined by testing the compounds at a range of concentrations from 0.25 nM-100 μM. The % inhibitions at each concentration are then fitted to a 4 parameter logistic fit: y=(a+((b−a)/(1+((c/x^d)))) where a=asym min, b=asym max, c=IC50 and d=hill coefficient

Sequence of full length MPS1 (P33981 whole entry): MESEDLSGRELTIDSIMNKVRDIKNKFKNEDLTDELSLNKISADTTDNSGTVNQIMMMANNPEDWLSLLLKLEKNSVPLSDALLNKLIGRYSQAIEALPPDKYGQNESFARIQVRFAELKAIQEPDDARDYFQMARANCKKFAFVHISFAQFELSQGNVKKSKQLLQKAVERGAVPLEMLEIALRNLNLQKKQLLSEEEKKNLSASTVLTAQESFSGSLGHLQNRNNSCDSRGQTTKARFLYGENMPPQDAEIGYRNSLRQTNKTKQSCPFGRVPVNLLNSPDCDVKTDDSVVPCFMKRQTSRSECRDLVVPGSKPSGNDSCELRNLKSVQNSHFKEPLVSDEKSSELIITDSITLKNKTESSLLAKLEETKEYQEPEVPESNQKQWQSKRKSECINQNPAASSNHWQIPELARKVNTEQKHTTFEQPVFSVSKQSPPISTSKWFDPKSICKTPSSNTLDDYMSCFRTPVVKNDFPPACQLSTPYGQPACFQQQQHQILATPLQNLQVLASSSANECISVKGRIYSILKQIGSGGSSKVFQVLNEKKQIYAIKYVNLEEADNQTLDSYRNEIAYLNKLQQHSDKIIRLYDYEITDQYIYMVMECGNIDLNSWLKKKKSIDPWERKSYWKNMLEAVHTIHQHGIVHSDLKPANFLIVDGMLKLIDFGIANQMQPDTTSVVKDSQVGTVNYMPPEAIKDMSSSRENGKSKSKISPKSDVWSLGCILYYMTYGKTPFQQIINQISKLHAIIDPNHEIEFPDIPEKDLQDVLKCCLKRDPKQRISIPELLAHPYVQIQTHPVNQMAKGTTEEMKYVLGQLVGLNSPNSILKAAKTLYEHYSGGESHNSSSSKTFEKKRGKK

IC50 [nM] | Structure (SMILES)
2 | COc1cc(-c2cnc(C)n2C)ccc1Nc1cc2cc(-c3cnn(CC(C)O)c3)ccc2cn1 (racemic) [Example 38, 1-(4-(3-((4-(1,2-Dimethyl-1H-imidazol-5-yl)-2-methoxyphenyl)amino)isoquinolin-6-yl)-1H-pyrazol-1-yl)propan-2-ol]
6 | COc1cc(-c2cnc(C)n2C)ccc1Nc1cc2cc(-c3cnn(CC4COC(C)(C)O4)c3)ccc2cn1 (racemic) [Example 40, 6-(1-((2,2-Dimethyl-1,3-dioxolan-4-yl)methyl)-1H-pyrazol-4-yl)-N-(4-(1,2-dimethyl-1H-imidazol-5-yl)-2-methoxyphenyl)isoquinolin-3-amine]
6 | COc1cc(-c2cnc(C)n2C)ccc1Nc1cc2cc(-c3cnn(C(C)C(C)(C)O)c3)ccc2cn1 (racemic) [Example 68, 3-(4-(3-((4-(1,2-Dimelhyl-1H-imidazol-5-yl)-2-methoxyphenyl)amino)isoquinolin-6-yl)-1H-pyrazol-1-yl)-2-methylbutan-2-ol]
4 | CCC(O)Cn1cc(-c2ccc3cnc(Nc4ccc(C(=O)N5CC(OC)C5)cc4OC)cc3c2)cn1 (racemic) [Example 71, (4-((6-(1-(2-Hydroxybutyl)-1H-pyrazol-4-yl)isoquinolin-3-yl)amino)-3-methoxyphenyl)(3-methoxyazetidin-1-yl)methanone]
4 | COc1cc(C(=O)N2CC(OC)C2)ccc1Nc1cc2cc(-c3cnn(CC(O)C(C)C)c3)ccc2cn1 (racemic) [Example 73, (4-((6-(1-(2-Hydroxy-3-methylbutyl)-1H-pyrazol-4-yl)isoquinolin-3-yl)amino)-3-methoxy-phenyl)(3-methoxyazetidin-1-yl)methanone]
3 | COc1cc(C(=O)N2CC(OC)C2)ccc1Nc1cc2cc(-c3cnn(CC(O)C(F)(F)F)c3)ccc2cn1 (racemic) [Example 75, (3-Methoxy-4-((6-(1-(3,3,3-trifluoro-2-hydroxypropyl)-1H-pyrazol-4-yl)isoquinolin-3-yl)amino)-phenyl)(3-methoxyazetidin-1-yl)methanone]
5 | COc1cc(C(=O)N2CC(OC)C2)ccc1Nc1cc2cc(-c3cnn(C(C)C(C)(C)O)c3)ccc2cn1 (racemic) [Example 76, (4-((6-(1-(3-Hydroxy-3-methylbutan-2-yl)-1H-pyrazol-4-yl)isoquinolin-3-yl)amino)-3-methoxyphenyl)(3-methoxyazetidin-1-yl)methanone]
17 | COCC(O)Cn1cc(-c2ccc3cnc(Nc4ccc(C(=O)N5CC(OC)C5)cc4OC)cc3c2)cn1 (racemic) [Example 78, (4-((6-(1-(2-Hydroxy-3-methoxypropyl)-1H-pyrazol-4-yl)isoquinolin-3-yl)amino)-3-methoxyphenyl)(3-methoxyazetidin-1-yl)methanone]
9 | COCC(Cn1cc(-c2ccc3cnc(Nc4ccc(C(=O)N5CC(OC)C5)cc4OC)cc3c2)cn1)OC (racemic) [Example 79, (4-((6-(1-(2,3-Dimethoxypropyl)-1H-pyrazol-4-yl)isoquinolin-3-yl)amino)-3-methoxyphenyl)(3-methoxyazetidin-1-yl)methanone]
3 | COc1cc(C(=O)N2CC(OC)C2)ccc1Nc1cc2cc(-c3cnn(CC(O)CO)c3)ccc2cn1 (racemic) [Example 81, (4-((6-(1-(2,3-Dihydroxypropyl)-1H-pyrazol-4-yl)isoquinolin-3-yl)amino)-3-methoxyphenyl)(3-methoxyazetidin-1-yl)methanone]
5 | COc1cc(C(=O)N2CC(OC)C2)ccc1Nc1cc2cc(-c3cnn(C4COCC4O)c3)ccc2cn1 (racemic) [Example 82, (4-((6-(1-(4-Hydroxytetrahydrofuran-3-yl)-1H-pyrazol-4-yl)isoquinolin-3-yl)amino)-3-methoxyphenyl)(3-methoxyazetidin-1-yl)methanone]
15 | COc1cc(C(=O)N2CC(OC)C2)ccc1Nc1cc2cc(-c3cnn(C4CCCCC4O)c3)ccc2cn1 (racemic) [Example 85, (4-((6-(1-(2-Hydroxycyclohexyl)-1H-pyrazol-4-yl)isoquinolin-3-yl)amino)-3-methoxyphenyl)(3-methoxyazetidin-1-yl)methanone]
3 | COc1cc(-c2cnc(C)n2C)ccc1Nc1cc2cc(-c3cnn(CC(C)O)c3)ccc2cn1 (single isomer, unassigned) [Example 98, 1-(4-(3-((4-(1,2-dimethyl-1H-imidazol-5-yl)-2-methoxyphenyl)amino)isoquinolin-6-yl)-1H-pyrazol-1-yl)propan-2-ol]
5 | COc1cc(-c2cnc(C)n2C)ccc1Nc1cc2cc(-c3cnn(CC(C)O)c3)ccc2cn1 (single isomer, unassigned) [Example 99, 1-(4-(3-((4-(1,2-dimethyl-1H-imidazol-5-yl)-2-methoxyphenyl)amino)isoquinolin-6-yl)-1H-pyrazol-1-yl)propan-2-ol]
2 | COc1cc(-c2cnc(C)n2C)ccc1Nc1cc2cc(-c3cnn(CC4CCOCC4)c3)ccc2cn1 [Example 1, N-(4-(1,2-dimethyl-1H-imidazol-5-yl)-2-methoxyphenyl)-6-(1-((tetrahydro-2H-pyran-4-yl)methyl)-1H-pyrazol-4-yl)isoquinolin-3-amine]
1 | COc1cc(-c2cnc(C)n2C)ccc1Nc1cc2cc(-c3cnn(CC4CC4)c3)ccc2cn1 [Example 2, 6-(1-(Cyclopropylmethyl)-1H-pyrazol-4-yl)-N-(4-(1,2-dimethyl-1H-imidazol-5-yl)-2-methoxyphenyl)isoquinolin-3-amine]
2 | COc1cc(-c2cnc(C)n2C)ccc1Nc1cc2cc(-c3cnn(CC(F)F)c3)ccc2cn1 [Example 3, 6-(1-(2,2-Difluoroethyl)-1H-pyrazol-4-yl)-N-(4-(1,2-dimethyl-1H-imidazol-5-yl)-2-methoxyphenyl)isoquinolin-3-amine]
110 | COc1cc(-c2cnc(C)n2C)ccc1Nc1cc2cc(-c3cnn(C4CCN(C(=O)OC(C)(C)C)CC4)c3)ccc2cn1 [Example 4, tert-Butyl 4-(4-(3-((4-(1,2-dimethyl-1H-imidazol-5-yl)-2-methoxyphenyl)amino)isoquinolin-6-yl)-1H-pyrazol-1-yl)piperidine-1-carboxylate]
5 | COc1cc(-c2cnc(C)n2C)ccc1Nc1cc2cc(-c3cnc(C)n3C)ccc2cn1 [Example 5, 6-(1,2-Dimethyl-1H-imidazol-5-yl)-N-(4-(1,2-dimethyl-1H-imidazol-5-yl)-2-methoxyphenyl)-isoquinolin-3-amine]
4 | COc1cc(-c2cnc(C)n2C)ccc1Nc1cc2cc(-c3cnco3)ccc2cn1 [Example 6, N-(4-(1,2-dimethyl-1H-imidazol-5-yl)-2-methoxyphenyl)-6-(oxazol-5-yl)isoquinolin-3-amine]
145 | COc1cc(-c2cnc(C)n2C)ccc1Nc1cc2cc(-c3ccncc3)ccc2cn1 [Example 7, N-(4-(1,2-dimethyl-1H-imidazol-5-yl)-2-methoxyphenyl)-6-(pyridin-4-yl)isoquinolin-3-amine]
108 | COc1cc(-c2cnc(C)n2C)ccc1Nc1cc2cc(-c3ccc(N(C)C)nc3)ccc2cn1 [Example 8, N-(4-(1,2 dimethyl-1H-imidazol-5-yl)-2-methoxyphenyl)-6-(6-(dimethylamino)pyridin-3-yl)isoquinolin-3-amine]
4 | COc1cc(-c2cnc(C)n2C)ccc1Nc1cc2cc(-c3cncs3)ccc2cn1 [Example 9, N-(4-(1,2-dimethyl-1H-imidazol-5-yl)-2-methoxyphenyl)-6-(thiazol-5-yl)isoquinolin-3-amine]
7 | CCn1cc(-c2ccc3cnc(Nc4ccc(-c5cnc(C)n5C)cc4OC)cc3c2)cn1 [Example 10, N-(4-(1,2-dimethyl-1H-imidazol-5-yl)-2-methoxyphenyl)-6-(1-ethyl-1H-pyrazol-4-yl)isoquinolin-3-amine]
2 | COc1cc(-c2cnc(C)n2C)ccc1Nc1cc2cc(-c3ccc(C)nc3)ccc2cn1 [Example 11, N-(4-(1,2-dimethyl-1H-imidazol-5-yl)-2-methoxyphenyl)-6-(6-methylpyridin-3-yl)isoquinolin-3-amine]
713 | COc1cc(-c2cnc(C)n2C)ccc1Nc1cc2cc(-c3ccc(N(C)C(=O)OC(C)(C)C)nc3)ccc2cn1 [Example 12, tert-Butyl (5-(3-((4-(1,2-dimethyl-1H-imidazol-5-yl)-2-methoxyphenyl)amino)isoquinolin-6-yl)pyridin-2-yl)(methyl)carbamate]
97 | COc1cc(-c2cnc(C)n2C)ccc1Nc1cc2cc(-c3sc(C)nc3C)ccc2cn1 [Example 13, N-(4-(1,2-dimethyl-1H-imidazol-5-yl)-2-methoxyphenyl)-6-(2,4-dimethylthiazol-5-yl)isoquinolin-3-amine]
20 | COCCn1cc(-c2ccc3cnc(Nc4ccc(-c5cnc(C)n5C)cc4OC)cc3c2)cn1 [Example 14, N-(4-(1,2-dimethyl-1H-imidazol-5-yl)-2-methoxyphenyl)-6-(1-(2-methoxyethyl)-1H-pyrazol-4-yl)isoquinolin-3-amine]
3 | COc1cc(-c2cnc(C)n2C)ccc1Nc1cc2cc(-c3cnn(C(C)C)c3)ccc2cn1 [Example 15, N-(4-(1,2-dimethyl-1H-imidazol-5-yl)-2-methoxyphenyl)-6-(1-isopropyl-1H-pyrazol-4-yl)isoquinolin-3-amine]
3 | COc1cc(-c2cnc(C)n2C)ccc1Nc1cc2cc(-c3cccnc3)ccc2cn1 [Example 16, N-(4-(1,2-dimethyl-1H-imidazol-5-yl)-2-methoxyphenyl)-6-(pyridin-3-yl)isoquinolin-3-amine]
